Test results as given in patent US10654834B2 (Venenum Biodesign, LLC, priority 2016, dated 2020).
Where a name gives a salt, the structure may show the parent alone.

Experiments:
mouse TGR5 receptor = biological target: T1, mouse TGR5 receptor (Mus musculus, UniProt Q80SS6); assay: Mouse TGR5 HTRF cAMP production assay (HEK293-EBNA cells, Cisbio cAMP HiRange kit); type: cell-based; conditions: HEK293-EBNA cells overexpressing mouse TGR5, HTRF cAMP assay
T1 construct: host or cells: HEK293-EBNA (293 c18, ATCC CRL10852)
T1 sequence (Q80SS6 1-329): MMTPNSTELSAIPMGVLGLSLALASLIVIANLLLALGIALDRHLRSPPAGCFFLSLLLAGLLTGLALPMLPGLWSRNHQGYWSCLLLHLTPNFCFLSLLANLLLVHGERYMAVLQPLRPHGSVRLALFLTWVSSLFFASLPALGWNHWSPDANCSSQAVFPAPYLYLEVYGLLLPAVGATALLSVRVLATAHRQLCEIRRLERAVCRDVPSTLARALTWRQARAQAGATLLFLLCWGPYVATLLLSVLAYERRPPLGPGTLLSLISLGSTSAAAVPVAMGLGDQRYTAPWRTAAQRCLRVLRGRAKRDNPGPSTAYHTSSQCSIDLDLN
Description: Mouse TGR5 cAMP Production Assay
Compounds of the present invention were evaluated for their ability to induce cAMP production in HEK-EBNA cells overexpressing the mouse TGR5 receptor. Human embryonic kidney cells (HEK293-EBNA) stably expressing mouse TGR5 receptor were established using the following procedure. Specifically, a commercially obtained gene encoding mouse TGR5 (accession number BC116914) from Thermo Scientific (Waltham, Mass.) was cloned into an episomal expression vector. The resulting expression plasmid was then transfected into 293 c18 (ATCC® CRL10852™) cells, which express the Epstein-Barr virus nuclear antigen EBNA1 and can support the replication of episomal vectors. Selection for the plasmid was maintained with Hygromycin B. Cells were cultured and maintained in DMEM (Sigma; cat #6429) supplemented with 10% Fetal Bovine Serum, 1% penicillin/streptomycin, 2 mM L-alanine L-glutamine (GlutaMax), and 250 μg/mL Hygromycin.
We developed two cAMP production assays.
(ii) HTRF cAMP Production Assay
In this second cAMP production assay, the cAMP production was measured in 384-well low volume plates (Greiner; cat #784075) using the Cisbio™ cAMP HiRange HTRF Assay Kit (CisBio) according to the manufacturer's protocol.
Briefly, compounds were initially diluted in 100% DMSO (12-point serial dilution by half logs) in a 96-well plate and then were further diluted 1:50 in PBS containing 10 mM HEPES. 5 μL were transferred to the 384-well assay plate in duplicate. HEK293-EBNA cells stably overexpressing mouse TGR5 were harvested using non-enzymatic cell dissociation buffer (Sigma), spun down, then resuspended in serum-free DMEM with 500 μM IBMX at a density of 500,000 cells/mL. 5 μL of cell suspension was transferred to each well of the 384-well assay plate already containing compound. The plate was covered and incubated at room temperature for 1 hour. The d2-cAMP and anti-cAMP Ab-cryptate stock solutions were prepared as per kit instructions. Then 5 μL of each conjugate (d2 and cryptate) were added to each well of the assay plate. The plate was covered and incubated at room temperature for one (1) hour. The plate was read on an Envision™ plate reader (PerkinElmer).
(§1) In Table 52, EC50 values for both human and mouse cells were determined according to the TGR5 cAMP assays described above. […]

human TGR5 receptor = biological target: T2, human TGR5 receptor (Homo sapiens, UniProt Q8TDU6); assay: Human TGR5 cAMP production assay (hTGR5-CHO cells, DiscoveRx cAMP XS+ kit); type: cell-based; conditions: luminescent cAMP assay, read-out: Human TGR5 Lum. cAMP Activity (EC50)
T2 construct: host or cells: CHO-K1 (hTGR5-CHO)
T2 sequence (Q8TDU6 1-330): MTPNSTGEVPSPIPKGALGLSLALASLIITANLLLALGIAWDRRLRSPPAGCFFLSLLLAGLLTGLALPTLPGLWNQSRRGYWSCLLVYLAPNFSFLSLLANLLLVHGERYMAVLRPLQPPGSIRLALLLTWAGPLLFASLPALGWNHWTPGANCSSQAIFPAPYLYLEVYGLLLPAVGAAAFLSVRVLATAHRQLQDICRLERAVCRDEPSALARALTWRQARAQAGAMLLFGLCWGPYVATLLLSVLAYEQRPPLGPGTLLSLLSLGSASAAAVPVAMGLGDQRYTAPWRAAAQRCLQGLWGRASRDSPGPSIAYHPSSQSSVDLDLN
Description: Human TGR5 cAMP Production Assay
Compounds of the present invention were evaluated for their ability to induce cAMP production using CHO-K1 cells overexpressing the human TGR5 receptor.
CHO-K1 cells stably expressing human TGR5 receptor (accession number NM_001077194.1) (hTGR5) (i.e., hTGR5-CHO cells) were purchased from DiscoveRx Corporation (Fremont, Calif.). hTGR5-CHO cells were grown in Ham's F-12 media supplemented with 10% Fetal Bovine Serum, 1% Penicillin-Streptomycin, 2 mM L-Alanine L-Glutamine (Glutamax), and 800 μg/mL Geneticin selection. The cAMP production assay was performed using DiscoveRx's cAMP XS+ kit (Catalog No. 90-0075XL) following the manufacturer's recommended protocol. Briefly, hTGR5-CHO cells were harvested using non-enzymatic cell dissociation buffer (Sigma-Aldrich, St. Louis, Mo.) and 1×10^6 cells were combined in Phosphate-Buffered Saline (PBS) to a final volume of 496 μL to which 4 μL of 125 mM IBMX (Sigma-Aldrich, St. Louis, Mo.) was added. 500 μL of cAMP antibody solution was added to the harvested cells and incubated at room temperature for 20 min.
Test compounds were serially diluted (half-log dilutions) in DMSO and then further diluted 1:50 in PBS, 10 mM HEPES buffer. 2 μL of serially diluted compound was added to a 384-well low volume plate (Greiner; cat #784075) and centrifuged briefly. 2 μl of the cell/cAMP antibody mixture was then added to each compound-containing well and allowed to incubate at room temperature for one hour. Following incubation, the XS+ kits' ED/Lysis/CL Substrate Working Solution was prepared following the manufacturer's recommended protocol and 4 μL was added to each well of the plate. The plate was then incubated for one hour at room temperature. Following incubation, 4 μL of Enzyme Acceptor reagent was added to the plate and allowed to incubate overnight at room temperature. Luminescent signal was then detected using the Viewlux instrument (Perkin-Elmer, Waltham, Mass.).
Human and Mouse TGR5 cAMP
as §1

| Compound | EC50 (mouse TGR5 receptor) | EC50 (human TGR5 receptor) |
| --- | --- | --- |
| N#CCCC1CCN(c2cc(N3CCC[C@H]3C(=O)NCCc3ccc(C(F)(F)F)cc3)nc(C(F)(F)F)n2)CC1 [Compound 11] | < 100 nM | < 100 nM |
| N#Cc1ccc(CCNC(=O)[C@@H]2CCCN2c2cc(NCCS(=O)(=O)O)nc(C(F)(F)F)n2)cc1 [Compound 12] | 1000 to 30000 nM | 1000 to 30000 nM |
| CN(C)CCC1CCN(c2cc(N3CCC[C@H]3C(=O)NCCc3ccc(C#N)cc3)nc(C(F)(F)F)n2)CC1 [Compound 21] | 100 to 999 nM | < 100 nM |
| N#Cc1ccc(CCNC(=O)[C@@H]2CCCN2c2cc(N3CCC(CCCO)CC3)nc(C(F)(F)F)n2)cc1 [Compound 23] | < 100 nM | < 100 nM |
| COCCC1CCN(c2cc(N3CCC[C@H]3C(=O)NCCc3ccc(C#N)cc3)nc(C(F)(F)F)n2)CC1 [Compound 25] | < 100 nM | < 100 nM |
| N#Cc1ccc(CCNC(=O)[C@@H]2CCCN2c2cc(N3CCC(CC(=O)O)CC3)nc(C(F)(F)F)n2)cc1 [Compound 27] | < 100 nM | 100 to 999 nM |
| CN(C)CCN1CCN(c2cc(N3CCC[C@H]3C(=O)NCCc3ccc(C#N)cc3)nc(C(F)(F)F)n2)CC1 [Compound 30] | 100 to 999 nM | 100 to 999 nM |
| N#Cc1ccc(CCNC(=O)[C@@H]2CCCN2c2cc(N3CCN(CCO)CC3)nc(C(F)(F)F)n2)cc1 [Compound 31] | < 100 nM | 100 to 999 nM |
| O=C(O)CCCC1CCN(c2cc(N3CCC[C@H]3C(=O)NCCc3ccc(Cl)cc3Cl)ncn2)CC1 [Compound 35] | 100 to 999 nM | 1000 to 30000 nM |
| Cc1nc(N2CCC(CO)CC2)cc(N2CCC[C@H]2C(=O)NCCc2ccc(C#N)cc2)n1 [Compound 36] | 1000 to 30000 nM | 100 to 999 nM |
| N#Cc1ccc(CCNC(=O)[C@@H]2CCCN2c2cc(C(F)(F)F)cc(N3CCC(CO)CC3)n2)cc1 [Compound 37] | > 30000 nM | 1000 to 30000 nM |
| CCOC(=O)CCNC(=O)NCCC1CCN(c2cc(N3CCC[C@H]3C(=O)NCCc3ccc(C#N)cc3)nc(C(F)(F)F)n2)CC1 [Compound 55, (S)-ethyl 3-(3-(2-(1-(6-(2-((4-cyanophenethyl)carbamoyl)pyrrolidin-1-yl)-2-(trifluoromethyl)pyrimidin-4-yl)piperidin-4-yl)ethyl)ureido)propanoate] | < 100 nM | < 100 nM |
| COC(=O)[C@H](CCC[N+](C)(C)C)NC(=O)CCCC1CCN(c2cc(N3CCC[C@H]3C(=O)NCCc3ccc(C#N)cc3)nc(C(F)(F)F)n2)CC1 [Compound 65, (S)-4-(4-(1-(6-((S)-2-((4-cyanophenethyl)carbamoyl)pyrrolidin-1-yl)-2-(trifluoromethyl)pyrimidin-4-yl)piperidin-4-yl)butanamido)-5-methoxy-N,N,N-trimethyl-5-oxopentan-1-aminium] | < 100 nM | < 100 nM |
| COC(=O)[C@@H](N)CCCCNC(=O)CCCC1CCN(c2cc(N3CCC[C@H]3C(=O)NCCc3ccc(C#N)cc3)nc(C(F)(F)F)n2)CC1 [Compound 71, (S)-methyl 2-amino-6-(4-(1-(6-((S)-2-((4-cyanophenethyl)carbamoyl)-pyrrolidin-1-yl)-2-(trifluoromethyl)-pyrimidin-4-yl)piperidin-4-yl)butanamido)hexanoate] | < 100 nM | < 100 nM |
| N[C@@H](CCC(=O)NCCCC1CCN(c2cc(N3CCC[C@H]3C(=O)NCCc3ccc(C(F)(F)F)cc3)nc(C(F)(F)F)n2)CC1)C(=O)O [Compound 77, (S)-2-amino-5-oxo-5-((3-(1-(2-(trifluoromethyl)-6-((S)-2-((4-(trifluoromethyl)phenethyl)carbamoyl)pyrrolidin-1-yl)pyrimidin-4-yl)piperidin-4-yl)propyl)amino)pentanoic acid] | < 100 nM | < 100 nM |
| N#Cc1ccc(CCNC(=O)[C@@H]2CCCN2c2cc(N3CCC(CCNC(=O)N[C@H](CC(=O)O)C(=O)O)CC3)nc(C(F)(F)F)n2)cc1 [Compound 82, (R)-2-(3-(2-(1-(6-((S)-2-((4-cyanophenethyl)carbamoyl)pyrrolidin-1-yl)-2-(trifluoromethyl)pyrimidin-4-yl)piperidin-4-yl)ethyl)ureido)succinic acid] | < 100 nM | < 100 nM |
| CC1(CO)CCN(C(=O)NCCC2CCN(c3cc(N4CCC[C@H]4C(=O)NCCc4ccc(C#N)cc4)nc(C(F)(F)F)n3)CC2)CC1 [Compound 84, (S)-N-(2-(1-(6-(2-((4-cyanophenethyl)carbamoyl)pyrrolidin-1-yl)-2-(trifluoromethyl)pyrimidin-4-yl)piperidin-4-yl)ethyl)-4-(hydroxymethyl)-4-methylpiperidine-1-carboxamide] | < 100 nM | < 100 nM |
| NCCNC(=O)CCCC1CCN(c2cc(N3CCC[C@H]3C(=O)NCCc3ccc(C(F)(F)F)cc3)nc(C(F)(F)F)n2)CC1 [Compound 90, (S)-1-(6-(4-(4-((2-aminoethyl)amino)-4-oxobutyl)piperidin-1-yl)-2-(trifluoromethyl)pyrimidin-4-yl)-N-(4-(trifluoromethyl)phenethyl)pyrrolidine-2-carboxamide hydrochloride] | < 100 nM | < 100 nM |
| N#Cc1ccc(CCNC(=O)[C@@H]2CCCN2c2cc(N3CCC(CCCC(=O)NCCN)CC3)nc(C(F)(F)F)n2)cc1 [Compound 92, (S)-1-(6-(4-(4-((2-aminoethyl)amino)-4-oxobutyl)piperidin-1-yl)-2-(trifluoromethyl)pyrimidin-4-yl)-N-(4-cyanophenethyl)pyrrolidine-2-carboxamide] | < 100 nM | < 100 nM |
| N#Cc1ccc(CCNC(=O)[C@@H]2CCCN2c2cc(N3CCC(CCCC(=O)NCCNc4ncnc5c4ncn5[C@@H]4O[C@H](CO)C(O)C4O)CC3)nc(C(F)(F)F)n2)cc1 (stereo partly drawn) [Compound 97, (2S)-N-(4-cyanophenethyl)-1-(6-(4-(4-((2-((9-((2R,5R)-3,4-dihydroxy-5-(hydroxymethyl)tetrahydrofuran-2-yl)-9H-purin-6-yl)amino)ethyl)amino)-4-oxobutyl)piperidin-1-yl)-2-(trifluoromethyl)-pyrimidin-4-yl)pyrrolidine-2-carboximide] | < 100 nM | < 100 nM |
